The values that follow come from patent US8038984B2, “Membrane-permeant peptide complexes for treatment of sepsis” (Washington University, priority 1998, dated 2011).

In assay [1] the test system is human lymphocytes. In words: Laser scanning confocal microscopy of internalization into human lymphocytes. In kind it is cell-based. Conditions: 1 μM. As to the method:
Freshly isolated human lymphocytes were incubated with fluorescently labeled Tat-BH4 peptide to confirm intracellular localization of the functional permeant peptide. For labeling, cells were suspended for 30 minutes in modified Earl's balanced salt solution containing 1 μM of the fluorescently labeled TAT-BH4. Control cells were treated identically except no labeled TAT-BH4 was added. Following fixation for 10 minutes in 4% paraformaldehyde, cells were analyzed for peptide internalization via detection of fluorescence by confocal microscopy using an inverted Zeiss Axiovert 200 laser scanning confocal microscope couple to a Zeiss LSM 5 PASCAL fitted with a 488 nm excitation Argon laser and a 520 nm bandpass emission filter. All images were obtained using a water immersion lens (40×) and identical instrument settings.

Assay [2] deals with human lymphocytes. In words: E. coli bacterial-induced lymphocyte apoptosis, staining for active caspase 3. In kind it is cell-based. The conditions noted are these: human lymphocytes, live E. coli ~5 hours. The procedure:
(§1) Thymocytes and splenocytes were obtained from CLP and sham-treated mice ˜20 hours postoperatively. The APO-BRDU™ kit (Phoenix Flow Systems, San Diego, Calif.) was employed for flow cytometric quantitation of TUNEL. Antibodies to active caspase 3 (Cell Signaling—Catalog #9664) were used in the flow cytometry and/or TUNEL assay.
Lymphocytes were harvested from peripheral blood obtained from 6 healthy volunteers using a ficol gradient separation technique. Approximately 1×10^6 lymphocytes were plated in individual transwell containers. E. coli bacteria (strain ATCC 25922), that had been grown overnight in trypticase soy broth were added to a separate compartment of the transwell chamber separated from direct contact with the lymphocytes by a 0.02 micron filter (25 μl of bacteria at 3×10^9 CFUs added to 1 ml volume.

The subject of assay [3] is sepsis-induced lymphocyte apoptosis. In words: Cecal ligation and puncture (CLP) sepsis model, lymphocyte apoptosis by active caspase 3. The assay is classed as in vivo, C57BL6/J mice. Conditions: mice, 1 mg by mini-osmotic pump plus additional 9.5 mg dose i.p. As to the method:
C57BL6/J male mice were housed for at least one week before manipulations. Mice were anesthetized with halothane and an abdominal incision was performed. The cecum was identified, ligated, and punctured with a #30 gauge needle. The abdomen was closed in two layers and 1 cc of 0.9% saline was administered subcutaneously.
as §1
The pumps were implanted approximately 3 hours prior to CLP because it requires ˜3 hours for pumps to activate and deliver steady state levels of compound.
The pumps were not activated until approximately three hours after implantation. […] Spleens, thymi and blood were harvested and examined for apoptosis via staining for active caspase 3.

Square brackets hold non-standard residues; d marks the D form. Ends that are not written are not given here. dOrn = NCCC[C@@H](N)C(=O)O; βAla = NCCC(=O)O

Turning to “(d) ac-C(FM)RKKRR-Orn-RRR-β-A-(I)-SNRELVVDFLSYKLSQKGYS-COOH ([dR][dK][dK][dR][dR][dOrn][dR][dR][dR][βAla]SNRELVVDFLSYKLSQKGYS-OH; not fully specified (N-terminus)) [fluorescein conjugated TAT-BH4]”, in the assay with human lymphocytes [1], the “internalization into human lymphocytes” value is on record as “located intracellular”.

For the substance “(d)-Ac-RKKRR-Orn-RRR-β-A-(l)-SNRELVVDFLSYKLSQKGYS-COOH (Ac-[dR][dK][dK][dR][dR][dOrn][dR][dR][dR][βAla]SNRELVVDFLSYKLSQKGYS-OH; SMILES CC(=O)N[C@H](CCCNC(=N)N)C(=O)N[C@H](CCCCN)C(=O)N[C@H](CCCCN)C(=O)N[C@H](CCCNC(=N)N)C(=O)N[C@H](CCCNC(=N)N)C(=O)N[C@H](CCCN)C(=O)N[C@H](CCCNC(=N)N)C(=O)N[C@H](CCCNC(=N)N)C(=O)N[C@H](CCCNC(=N)N)C(=O)NCCC(=O)N[C@@H](CO)C(=O)N[C@@H](CC(N)=O)C(=O)N[C@@H](CCCNC(=N)N)C(=O)N[C@@H](CCC(=O)O)C(=O)N[C@@H](CC(C)C)C(=O)N[C@H](C(=O)N[C@H](C(=O)N[C@@H](CC(=O)O)C(=O)N[C@@H](Cc1ccccc1)C(=O)N[C@@H](CC(C)C)C(=O)N[C@@H](CO)C(=O)N[C@@H](Cc1ccc(O)cc1)C(=O)N[C@@H](CCCCN)C(=O)N[C@@H](CC(C)C)C(=O)N[C@@H](CO)C(=O)N[C@@H](CCC(N)=O)C(=O)N[C@@H](CCCCN)C(=O)NCC(=O)N[C@@H](Cc1ccc(O)cc1)C(=O)N[C@@H](CO)C(=O)O)C(C)C)C(C)C) [TAT-BH4]”, the bacterial-induced apoptosis result in the assay on human lymphocytes [2] (500 nM) and in the assay on human lymphocytes [2] (1 μM) was “significant decrease” throughout. The “sepsis-induced CD3 T cell and B cell apoptosis in the spleen” value in assay [3] is on record as “ameliorated the increase”.
